Data set [1] can be described thus: Caco-2 model of drug absorption (permeability). In kind it is in vitro ADME. The conditions noted are these: human, read-out: permeability directional ratio (PDR). The protocol:
In the Caco-2 model of drug absorption, the permeability coefficients of cariprazine in inward and outward directions were calculated to be 26.4.10-6 cm/sec and 51.2.10-6 cm/sec, respectively (permeability directional ratio (PDR): 1.9) (Artursson P & Karlsson J (1991). “Correlation between oral drug absorption in humans and apparent drug permeability coefficients in human intestinal epithelial (Caco-2) cells”. Biochem Biophys Res Comm 175 (3): 880-5 and internal data).
For orientation: Caco-2 monolayers are a common model of the intestinal barrier.

Data set [2] in a line: pH-solubility of cariprazine hydrochloride at 37° C. Type of data set: physicochemical. The text has this:
Cariprazine salts are very well soluble in acidic environment. However, drugs, which are soluble in acidic environment can be practically insoluble in neutral or basic environment.

Counter-ions that a name gives are not always drawn. Like-named read-outs stand apart in the source and are kept apart here.

For the compound `CN(C)C(=O)N[C@H]1CC[C@H](CCN2CCN(c3cccc(Cl)c3Cl)CC2)CC1` [cariprazine, trans-N-{4-[2-[4-(2,3-dichlorophenyl)-piperazin-1-yl]-ethyl]-cyclohexyl}-N′,N′-dimethylurea], the efflux ratio in data set [1] was determined as 1.9.
Consider `CN(C)C(=O)N[C@H]1CC[C@H](CCN2CCN(c3cccc(Cl)c3Cl)CC2)CC1` [cariprazine hydrochloride], for which the “pH value of best solubility” value in data set [2] was around 3. In addition, the solubility (in general, the dissolved amount per volume that the medium holds) in data set [2] (37 °C, pH 1, simulated gastric fluid, pH 1, read-out: Solubility) is 3260 µg/mL; in data set [2] (37 °C, pH 2, simulated gastric fluid, pH 2, read-out: Solubility), 8930 µg/mL; in data set [2] (37 °C, pH 3, aqueous buffer, pH 3, read-out: Solubility), 11000 µg/mL; in data set [2] (37 °C, pH 4, aqueous buffer, pH 4, read-out: Solubility), 3230 µg/mL; in data set [2] (37 °C, pH 5, aqueous buffer, pH 5, read-out: Solubility), 351 µg/mL; in data set [2] (37 °C, pH 5.5, aqueous buffer, pH 5.5, read-out: Solubility), 149 µg/mL. Further, the solubility in data set [2] (37 °C, pH 6, aqueous buffer, pH 6, read-out: Solubility) is 18.8 µg/mL; in data set [2] (37 °C, pH 7, aqueous buffer, pH 7, read-out: Solubility) it was 1 µg/mL; in data set [2] (pH 1, hydrochloride), 3257.9 µg/mL; in data set [2] (pH 7, hydrochloride), 1.3 µg/mL.
